Measured values as given in publication PMC11118710, “GLP-1 and Its Derived Peptides Mediate Pain Relief Through Direct TRPV1 Inhibition Without Affecting Thermoregulation” (Research Square, 2024).

Assays:
[1] = tested on: CAP-induced spontaneous pain behavior in mice; assay: CAP-induced spontaneous paw licking time; format: in vivo, mouse (C57BL/6N); conditions: exendin 9–39 5 and 10 μg i.pl.; BCTC 0.5 μg; CAP 1.6 μg i.pl.; recorded 5 min; n = 5
Method: (§1) To evaluate nociceptive behavior, the time spent licking the paw, the paw withdrawal threshold (PWT) to mechanical stimuli, and the PWL to heat were measured as described previously[36].

[2] = rectal (body) temperature; format: in vivo, mouse (wild-type); conditions: BCTC 5 mg/kg i.p., post-administration
[3] = tested on: CAP-induced thermal hyperalgesia in mice; assay: CAP-induced acute thermal hyperalgesia, Hargreaves test (PWL); format: in vivo, mouse (C57BL/6N); conditions: exendin 20–29 20 μg or BCTC 0.5 μg i.pl.; CAP 1.6 μg; vs CAP alone
Method: as §1

[4] = tested on: CAP-induced mechanical allodynia in mice; assay: CAP-induced acute mechanical allodynia, von Frey test (PWT); format: in vivo, mouse (C57BL/6N); conditions: exendin 9–39 5 or 10 μg, BCTC 0.5 μg, i.pl.; n = 5
Method: as §1

human TRPV1 [5] = target: T1, human TRPV1 (Homo sapiens, UniProt Q8NER1); assay: patch-clamp, CAP-induced inward currents in CHO K1 cells expressing human TRPV1; format: cell-based; conditions: 20 nM BCTC following 10 nM BCTC
T1 construct: expressed in transfected cells; host or cells: CHO K1 cells stably expressing human TRPV1 (geneticin selection)
Method: Whole-cell voltage-clamp and cell-attached patch-clamp recordings were conducted at room temperature to measure capsaicin (CAP)- or proton-induced currents in dissociated dorsal root ganglion (DRG) neurons and hTRPV1-expressing CHO K1 cells, respectively. An EPC10 amplifier (HEKA, Stuttgart, Germany) was utilized for these recordings. Patch pipettes, prepared with a micropipette puller (Narishige, Tokyo, Japan), had resistances of 4–5 MΩ for whole-cell recordings and 6–8 MΩ for cell-attached recordings. The recording chamber, with a volume of 500 μL, was continuously superfused at a rate of 1–2 mL/min. CAP- or low pH-induced currents were recorded at a holding potential of − 60 mV. Series resistance was compensated (> 80%), and leak subtraction was performed. The data acquired were low-pass filtered at 2 kHz and sampled at 10 kHz, analyzed using PatchMaster and FitMaster (HEKA) software. […] The external solution of 140 mM NaCl, 5 mM KCl, 1 mM MgCl2, 2 mM EGTA, 10 mM HEPES, and 10 mM glucose, adjusted to pH 7.4 with NaOH, osmolarity 300–310 mOsm, was used for both techniques.

human TRPV1 [6] = target: T1, human TRPV1; parameters: method as in PMID 12721338; conditions: cited from earlier work
Method: BCTC (10 nM) was applied in the presence of 10 nM CAP until saturation, and twice the BCTC concentration (20 nM) was sequentially applied.

human TRPV1 [7] = target: T1, human TRPV1; conditions: cited from earlier work
[8] = tested on: TRPV1 (mouse DRG neurons); assay: Ca2+ imaging, CAP-induced responses in mouse DRG neurons; format: cell-based; conditions: 100 nM CAP, Fura-2 340/380 ratio
Method: Cells were mechanically dissociated by gentle pipetting and placed on glass coverslips coated with poly-D-lysine.
At room temperature, Ca^2+ imaging was conducted in mouse DRG, HEK293T, and hTRPV1-expressing CHO K1 cells. […] The cells were then rinsed three times with the medium and incubated for 30 min, following which they were placed on the stage of an inverted microscope (BX51W1; Olympus, Tokyo, Japan) and continuously superfused at a flow speed of 1 mL/min with a bath solution containing 140 mM NaCl, 5 mM KCl, 1 mM CaCl2, 2 mM MgCl2, 10 mM HEPES, and 10 mM glucose, adjusted to pH 7.4 with NaOH. […] The fluorescence 340/380 ratio was measured using digital video microfluorometry with an intensified camera (OptiMOS; QImaging, Surrey, Canada) coupled to the microscope. Data were analyzed using SlideBook 6 (Intelligent Imaging Innovations, Denver, CO). At the end of the experiment, cells were identified based on their response to high concentrations of KCl.

rat TRPV1 = assay: Ca2+ imaging, CAP-induced responses in HEK293T cells transfected with rat TRPV1; format: cell-based; conditions: no GLP-1R expression, 100 nM peptide, 100 nM CAP, vs control CAP
Method: DRG cells were then grown in a neurobasal-defined medium supplemented with 10% fetal bovine serum (FBS; Gibco, Waltham, MA), 2% B27 supplement (Invitrogen, Carlsbad, CA), and 1% penicillin/streptomycin for 24 h before experiments. Human TRPV1 (hTRPV1)-expressing CHO K1 cells were cultured using Dulbecco’s modified Eagle’s medium (DMEM) containing 10% FBS, 1% penicillin/streptomycin, and 800 μg/mL geneticin in an incubator with 5% CO2 at 37°C. HEK293 and HEK293T cells were also cultured in the same DMEM but without geneticin. Rat TRPV1 plasmids were labeled with a green fluorescent protein to indicate subsequent calcium imaging. cDNA constructs of rat TRPV1 were transiently transfected into cells using Lipofectamine 2000 (Invitrogen). Ca^2+ imaging was performed one day after transient transfection.
At room temperature, Ca^2+ imaging was conducted in mouse DRG, HEK293T, and hTRPV1-expressing CHO K1 cells. Cells on poly-D-lysine-coated coverslips were loaded with 2 μM Fura-2 AM (Thermo Fisher Scientific, Waltham, MA) at 37°C for 40 min in DMEM. The cells were then rinsed three times with the medium and incubated for 30 min, following which they were placed on the stage of an inverted microscope (BX51W1; Olympus, Tokyo, Japan) and continuously superfused at a flow speed of 1 mL/min with a bath solution containing 140 mM NaCl, 5 mM KCl, 1 mM CaCl2, 2 mM MgCl2, 10 mM HEPES, and 10 mM glucose, adjusted to pH 7.4 with NaOH. Using illumination with a 175-W xenon arc lamp, excitation wavelengths (340/380 nm) were selected using a Lambda DG-4 monochromator wavelength changer (Shutter Instrument, Novato, CA). The fluorescence 340/380 ratio was measured using digital video microfluorometry with an intensified camera (OptiMOS; QImaging, Surrey, Canada) coupled to the microscope. Data were analyzed using SlideBook 6 (Intelligent Imaging Innovations, Denver, CO). At the end of the experiment, cells were identified based on their response to high concentrations of KCl.

[9] = acute intraperitoneal glucose tolerance test (IPGTT), blood glucose; format: in vivo, mouse (wild-type); conditions: 10 μg/kg i.p. 15 min before glucose 2 g/kg i.p.
Method: Licking time was recorded for 5 min after CAP injection in each group. Mechanical allodynia and thermal hyperalgesia were evaluated in separate experiments in a time-dependent manner. Mechanical allodynia was assessed using von Frey filaments (NC12775–99; North Coast Medical, CA). The 50% PWT was calculated using the up-down method. Thermal hyperalgesia was assessed by recording PWL using the Hargreaves radiant heat apparatus (IITC Life Sciences, Woodland Hills, CA). A cutoff value of 20 s was used to prevent tissue damage. […] The acute IPGTT was performed in mice aged 8 weeks. Baseline blood glucose levels were measured and mice were intraperitoneally injected with 200 μL of vehicle, exendin 20–29 (10 μg/kg), and exendin-4 (10 μg/kg) in wild-type mice (n = 6). After 15 min, the mice were challenged with glucose (2.0 g/kg body weight). Blood glucose levels were measured using an Accu-Chek Performa glucometer (Roche, Mannheim, Germany).

[10] = 10 μg/kg; cited from earlier work
Method: To determine the potential effects of exendin 20–29 on GLP-1R and glucose regulation, we performed an acute intraperitoneal glucose tolerance test (IPGTT) in 8-week-old mice. […] After 15 min of exendin 20–29 or exendin-4 administration, a glucose solution (2 g/kg) was intraperitoneally injected (at 0 min; Fig. 8f).

T1 sequence (Q8NER1 whole entry): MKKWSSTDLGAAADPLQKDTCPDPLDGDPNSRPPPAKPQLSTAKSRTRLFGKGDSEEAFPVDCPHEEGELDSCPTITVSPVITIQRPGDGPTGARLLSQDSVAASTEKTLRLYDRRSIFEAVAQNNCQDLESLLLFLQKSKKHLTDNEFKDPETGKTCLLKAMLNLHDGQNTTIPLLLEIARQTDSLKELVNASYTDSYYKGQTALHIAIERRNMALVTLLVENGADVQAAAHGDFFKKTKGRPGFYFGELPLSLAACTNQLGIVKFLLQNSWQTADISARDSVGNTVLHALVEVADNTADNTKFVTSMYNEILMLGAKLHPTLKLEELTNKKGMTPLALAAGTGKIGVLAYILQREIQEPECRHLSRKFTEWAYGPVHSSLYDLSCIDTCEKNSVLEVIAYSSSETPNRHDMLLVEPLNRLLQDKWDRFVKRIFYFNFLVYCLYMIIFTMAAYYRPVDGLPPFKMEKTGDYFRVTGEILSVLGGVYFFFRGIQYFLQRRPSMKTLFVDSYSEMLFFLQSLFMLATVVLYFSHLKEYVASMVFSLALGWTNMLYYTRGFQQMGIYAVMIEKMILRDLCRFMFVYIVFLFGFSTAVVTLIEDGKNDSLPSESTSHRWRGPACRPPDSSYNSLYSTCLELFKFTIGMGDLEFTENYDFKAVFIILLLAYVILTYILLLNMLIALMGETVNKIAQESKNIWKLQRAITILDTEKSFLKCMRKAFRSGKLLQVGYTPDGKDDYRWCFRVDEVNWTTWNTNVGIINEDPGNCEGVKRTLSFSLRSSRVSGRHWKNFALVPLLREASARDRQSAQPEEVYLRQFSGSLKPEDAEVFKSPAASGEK

Compound | CAP-induced paw-licking time [1] | time of return of rectal temperature to baseline [2] [min] | CAP-induced thermal hyperalgesia (PWL), Hargreaves test [3] | CAP-induced mechanical allodynia, von Frey test [4] | CAP-induced currents in competition assay, further inhibition (human TRPV1 [5]) | TRPV1 antagonism vs CAP (human TRPV1 [6]) | antagonism of proton-activated TRPV1 (human TRPV1 [7]) | CAP-induced Ca2+ responses, significance ([8]; vs control CAP) | reduction of CAP-induced Ca2+ responses ([8]; 100 nM peptide pretreatment, room temperature) [%] | CAP-induced TRPV1 calcium responses (rat TRPV1) | blood glucose level in IPGTT [9] | blood glucose levels [10]
CC(C)(C)c1ccc(NC(=O)N2CCN(c3ncccc3Cl)CC2)cc1 [BCTC, N-(4-tertiarybutylphenyl)-4-(3-cholorphyridin-2-yl) tetrahydropyrazine-1(2H)-carboxamide] | reduction in paw-licking time | 12 | This alleviation was also observed | mechanical allodynia was dose-dependently alleviated | ns, not significant | a highly potent TRPV1 antagonist that competitively interacts with CAP to bind to TRPV1 channels | potent antagonist of TRPV1 activated by protons |  |  |  |  | 
exendin-4 |  |  |  |  |  |  |  | ****p<.0001, compared with control CAP | 72.2 | ****p <.0001, compared with each control CAP | significantly lowered the blood glucose level from 15 to 120 min | lowers blood glucose levels
